Laboratory results: patent US20040097454A1, “Method for modulation of cell phenotype” (University Technology Corporation, priority 1999, published 2004)

What was measured:
P-CREB/CREB in BASMC = assay: Acute CREB phosphorylation in BASMC; type: cell-based, bovine; details: acute treatment, confluent BASMC serum starved 48 hours
Method: A series of experiments was performed to determine the ability of insulin, IGF-1 and ISO to acutely enhance CREB phosphorylation in BASMC. BASMC were grown to confluence, ss for 48 hours, and acutely treated with insulin, IGF-1, or Iso in the concentrations noted in FIG. 12A-12C.

[1] = tested on: CREB-dependent promoter transactivation in BASMC; assay: CREB-dependent Gal4-TKluc reporter in BASMC; type: cell-based, bovine; details: for CREB-dependent promoter transactivation: insulin 100 nM, glucose 25 mM
Method: Isoproterenol is well documented to act through cAMP, yet no studies defining its impact on CREB transactivation in SMCs have been reported. In the next experiment, the ability of ISO to drive a CREB dependent reporter construct was determined. BASMC were transfected with Gal4-TKluc plasmid containing the Gal4 promoter and a thymidine kinase enhancer upstream of the gene encoding a luciferase reporter. These cells were cotransfected with control plasmid (pUC19), a plasmid encoding the Gal4 protein alone, or plasmids encoding chimeric Gal4 proteins with either wild type CRF-B (pZI-Gal4-TKluc) or Ser 133 mutated CREB (SeYI33). […] Of note, basal PKA mediated CRE reporter transcription is very high in these cells and is blocked by the PKA inhibitor H89.

BASMC migration = assay: SMC migration, Boyden chamber; type: cell-based, bovine; details: high glucose 25 mM vs 5 mM, 48 h
Method: BASMC were grown to 70% confluence and serum starved for 48 hours. Cells were then treated with 0.1 uM PDGF and assessed for thymidine incorporation (FIG. 10A) and migration (FIG. 10B) as follows. […] Migratory behavior of SMC cells was assessed using a 12 well micro-Boyden chamber apparatus (Transwell Apparatus, Costar, Corning, N.Y.). […] Wells were covered with a Type I collagen-coated PVP-free filter with 8 mm pores (Transwell Apparatus, Costar, Corning, N.Y.). Trypsinized cells were resuspended in serum-free medium containing either chemotactic compounds or vehicle, and plated at a density of 25,000 or 50,000 cells per well in a volume of 100 μL. At the end of the incubation, cells attached to the filter were fixed and stained in Dif Quick (American flospital Supply Corp., McGraw Park, Ill.).

CREB in BASMC = assay: CREB content and phosphorylation in BASMC exposed to high glucose or high insulin; type: cell-based, bovine; details: 72 hours exposure
Method: Studies were undertaken in BASMC to examine the impact of high glucose (HG) and/or high insulin (HI) on CREB and ICER content. BASMC were grown to confluence, ss for 24 hours, then treated with the concentrations of insulin and/or glucose.

ICER in BASMC = assay: ICER protein and mRNA content in BASMC exposed to glucose and insulin; type: cell-based, bovine; details: for ICER protein content: 72 hour; for ICER mRNA: glucose (5 and 25 mM) and insulin (3 and 100 nM), 72 h
Method: Next, BASMCs were exposed to either 3 nM or 100 nM insulin for 72 hours and analyzed for mRNA content of ICER. ICER protein was induced by physiological doses of glucose and insulin. […] BASMC were cultured to 90% confluence and treated with glucose (5 and 25 mM) and insulin ([…]) for 72 h. Total RNA was isolated from these cells using Qiagen's RNeasy kit. RNA samples were fractionated on denaturing 1.2% agarose-formaldehyde gels and transferred to Hybond N+ membrane. ICER IIγ CDNA probe was labeled with thermostable alkaline phosphatase using the AlkPhos-Direct kit from Amersham Lifesciences (Buckinghamshire, England). Hybridization, washing and detection by CDP-Star were performed according to manufacturer's protocol.

[2] = tested on: putative CRE sequences of adipocyte-specific gene promoters; assay: Gel retardation assay of recombinant CREB with putative CRE oligonucleotides; type: binding; details: twenty base pair double stranded 32P-labeled oligonucleotides
Method: Next, the ability of purified, recombinant CREB to bind double stranded oligonucleotide probes of these sequences in gel retardation assays was tested as previously described in Klemm et al., 1998, J. Biol. Chem., 273:917-923. Twenty base pair, double stranded nucleotides, end labeled with y32P-ATP and polynucleotide kinase, were incubated with purified, recombinant 30 CREB protein. The reactions were separated on nondenaturing, 6% polyacrylamide gels and exposed to Kodak X-ARomat film. […] In these experiments, 5 ug of nuclear extract protein prepared from 3T3-L1 fibroblasts was incubated with the indicated, labeled oligonucleotides either in the absence (−) or presence (+) of CREB specific antibody. The reactions were separated on polyacrylamide gels as described above and exposed to film. […] Obviously, CREB may not bind to some of the tested sequences in the context of their native promoter environment or under conditions found within the cell. Alternately, CREB may interact with the putative CRE sites we have tested in the PPARγ2 and CEBP α promoters under different conditions, or perhaps bind to other sequences in these promoters not identified by visual inspection.

[3] = tested on: bovine aorta smooth muscle cells (BASMC); assay: BASMC morphology and α SM actin content on PKA inhibition; type: cell-based
From the text: To confirm literature reports of the importance of cAMP for the smooth muscle cell (SMC) phenotype, bovine aorta smooth muscle cells (BASMC) were examined for changes in morphology and migration upon modulation of PKA activity. These cells are from a single vascular bed and harvested from an ingrown strain of cattle. BASMC are an established model of vascular smooth muscle tissue in culture (Cucina et al., 1999, J. Surg. Res., 82:61-66; Frid et al., 1997, Circ. Res., 81:940-952; Frid et al., Arterioscler Throb Vasc Biol 17:1203-1209,1997; Hatzi et al., 1999, Eur. J. Biochem., 260:825-832; Stenmark et al., Chest 114:82S-90S, 1998; Takahashi et al., Circ Res 84:543-550, 1999; Underwood et al., 1998, J. Vasc. Res., 35:449-460), and are useful for assessing vascular smooth muscle cell proliferation, migration and contraction. […] Specifically, H89 results in loss of SMC “spindle shape” representative of differentiated, contractile phenotype.

[4] = tested on: NIH 3T3-L1 preadipocyte cell lines; assay: Adipocyte differentiation assay, Oil Red O staining of triacylglycerol; type: cell-based
Method: Differentiation assays were performed on cells growing on 8 chamber microscope slides. […] The cells were treated with a differentiation mixture, muristerone, or both. […] Muristerone was added to medium at a final concentration of 10 uM for the entire 10 day differentiation period. After 10 days in culture, the cells were stained with Oil Red 0 to visualize triacylglycerol vesicles as previously described (Klemm et al., 1998, J. Biol. Chem., 273:917-923), and counterstained with hematoxylin to visualize cell morphology. Cells were observed by brightfield microscopy and representative fields, were photographed.

BASMC = assay: Cell cycle phase by fluorescence flow cytometry (Krishan's stain) in BASMC with inducible WT CREB; type: cell-based, bovine; details: muristerone-induced expression; 0.1 or 10% serum
Method: BASMC were stably transfected with the muristerone-inducible wild-type CREB (WT CREB) expression vector. They were then exposed to serum at 0.1 or 10% with and with exposure to muristerone to induce CREB expression. FIGS. 8A-8D show control cells on the left and muristerone cells on the right. Cells were incubated with Krishan's stain and subjected to fluorescence flow cytometry to assess proliferative capacity to determine phase in the cell cycle. […] This peak was smaller in the cells incubated in low serum. […] The stably transfected clone served as its own control. Preliminary studies were next undertaken to investigate the impact of adenoviral infection with constitutively active CREB (adVP16 CREB) on CRE driven gene expression, proliferation, and migration.

CC(C)NCC(O)c1ccc(O)c(O)c1 (centres unmarked) [Iso, Isoproterenol]
P-CREB/CREB content (P-CREB/CREB in BASMC): acutely increases P-CREB/CREB content

OC[C@H]1OC(O)[C@H](O)[C@@H](O)[C@@H]1O (some centres unmarked) [glucose]
CREB-dependent promoter transactivation [1]: attenuates this activity
cell migration in Boyden Chamber (BASMC migration): increased cell migration
CREB phosphorylation (PCREB) (CREB in BASMC): delayed increases in PCREB
change in CREB protein content (CREB in BASMC): −32%
ICER protein content (ICER in BASMC): induced ICER protein
ICER mRNA (ICER in BASMC): increase in ICER mRNA

Recombinant CREB: purified, recombinant CREB protein
binding to promoter probes of PEPCK, FABP, FAS, SCD and CEBP genes [2]: able to bind

O=S(=O)(NCCNC/C=C/c1ccc(Br)cc1)c1cccc2cnccc12 [H89]
basal PKA mediated CRE reporter transcription [1]: blocked
endogenous CREB kinase activity (Gal4-CREB reporter) ([1]; PKA inhibitor treatment): attenuates high endogenous CREB kinase activity
α SM actin content ([3]; 0-10 uM, 72 hours): decreased α SM actin content
cellular morphology ([3]; 10 uM, 4, 8 and 24 hours, relative to untreated control): significant alterations in cellular morphology

insulin: insulin; high insulin (HI)
triacylglycerol accumulation in VP16-CREB-expressing cells ([4]; muristerone induced cells also treated with insulin, versus muristerone alone): triacylglycerol accumulation was enhanced
P-CREB/CREB content (P-CREB/CREB in BASMC): acutely increases P-CREB/CREB content
transcriptional activation of CREB in presence of H89 ([1]; PKA inhibited with H89): clear dose-dependent transcriptional activation of CREB
CREB-dependent promoter transactivation [1]: increases CREB-dependent promoter transactivation
CREB phosphorylation (PCREB) (CREB in BASMC): increased CREB phosphorylation
change in CREB protein content (CREB in BASMC): −24%
ICER protein content (ICER in BASMC): decreased ICER content
ICER mRNA (ICER in BASMC): increase in ICER mRNA

WT CREB: wild-type CREB expressed from muristerone-inducible vector or adenovirus
cell cycle phase (BASMC): cell cycle arrest

CC(C)CC[C@@H](O)[C@](C)(O)[C@H]1CC[C@@]2(O)C3=CC(=O)[C@]4(O)C[C@@H](O)[C@@H](O)C[C@]4(C)[C@H]3[C@H](O)C[C@]12C [muristerone, reference compound]
triacylglycerol accumulation (Oil Red O) in control cells ([4]; control cells (pVgRXR, pIND-LacZ), 10 uM muristerone alone, 10 days): No triacylglycerol accumulation

IGF-1: insulin growth factor I
P-CREB/CREB content (P-CREB/CREB in BASMC): acutely increases P-CREB/CREB content
